# Source: patent publication EP0025288A1, “Derivatives of monic acid, processes for their preparation, compositions containing them and their preparation” (priority 1979, dated 1981)
# Experiments:
# Type in all cases: cell-based
# E coli NCTC 10418 [1] = assay: MIC, human bacteria, serial dilution in nutrient agar; conditions: nutrient agar containing 5% 'chocolated' horse blood
# E coli ESS = assay: as above; conditions: nutrient agar containing 5% 'chocolated' horse blood
# P mirabilis 889 = assay: as above; conditions: nutrient agar containing 5% 'chocolated' horse blood
# K aerogenes A = assay: as above; conditions: nutrient agar containing 5% 'chocolated' horse blood
# Ps aeruginosa 10662 = assay: as above; conditions: nutrient agar containing 5% 'chocolated' horse blood
# [2] = tested on: Pasteurella multocida 1633; assay: as above; conditions: nutrient agar containing 5% 'chocolated' horse blood
# [3] = tested on: Haemophilus influenzae Q1; assay: as above; conditions: nutrient agar containing 5% 'chocolated' horse blood
# [4] = tested on: Haemophilus influenzae Wy21; assay: as above; conditions: nutrient agar containing 5% 'chocolated' horse blood
# [5] = tested on: Neisseria catarrhalis 1502; assay: as above; conditions: Neisseria catarrhalis 1502 (footnote a); nutrient agar containing 5% 'chocolated' horse blood
# Bacillus subtilis 6633 = assay: as above; conditions: nutrient agar containing 5% 'chocolated' horse blood
# Staph aureus Oxford [6] = assay: as above; conditions: nutrient agar containing 5% 'chocolated' horse blood
# Staph aureus Russell = assay: as above; conditions: nutrient agar containing 5% 'chocolated' horse blood
# Staph aureus W2827 = assay: as above; conditions: nutrient agar containing 5% 'chocolated' horse blood
# Strep faecalis I = assay: as above; conditions: nutrient agar containing 5% 'chocolated' horse blood
# Strep pyogenes A 64/848 = assay: as above; conditions: nutrient agar containing 5% 'chocolated' horse blood
# Strep pyogenes B 2788 = assay: as above; conditions: nutrient agar containing 5% 'chocolated' horse blood
# Strep pyogenes C 2761 = assay: as above; conditions: nutrient agar containing 5% 'chocolated' horse blood
# Strep pneumoniae CN33 = assay: as above; conditions: nutrient agar containing 5% 'chocolated' horse blood
# E coli NCTC 10418 [7] = assay: MIC, veterinary bacteria; conditions: veterinary bacteria (Table 2)
# E coli E1 = assay: MIC, veterinary bacteria; conditions: veterinary bacteria (Table 2)
# S dublin S7 = assay: MIC, veterinary bacteria; conditions: veterinary bacteria (Table 2)
# S typhimurium S18 = assay: MIC, veterinary bacteria; conditions: veterinary bacteria (Table 2)
# Bord bronchiseptica BO8 = assay: MIC, veterinary bacteria; conditions: veterinary bacteria (Table 2)
# Bord bronchisptica BO9 = assay: MIC, veterinary bacteria; conditions: veterinary bacteria (Table 2)
# Past multocida PA1 = assay: MIC, veterinary bacteria; conditions: veterinary bacteria (Table 2)
# Past multocida PA2 = assay: MIC, veterinary bacteria; conditions: veterinary bacteria (Table 2)
# Past Haemolytica PA5 = assay: MIC, veterinary bacteria; conditions: veterinary bacteria (Table 2)
# [8] = tested on: Erysipelothrix rhusiopathiae NCTC 8163; assay: MIC, veterinary bacteria; conditions: veterinary bacteria (Table 2)
# [9] = tested on: Corynebacterium pyogenes CY1; assay: MIC, veterinary bacteria; conditions: veterinary bacteria (Table 2)
# [10] = tested on: Staph aureus B4 (pen resis); assay: MIC, veterinary bacteria; conditions: veterinary bacteria (Table 2)
# [11] = tested on: Staph aureus 152 (pen sens); assay: MIC, veterinary bacteria; conditions: veterinary bacteria (Table 2)
# Staph aureus Oxford [12] = assay: MIC, veterinary bacteria; conditions: veterinary bacteria (Table 2)
# [13] = tested on: Strep suis (group D) SPS11; assay: MIC, veterinary bacteria; conditions: veterinary bacteria (Table 2)
# Strep uberis SPU1 = assay: MIC, veterinary bacteria; conditions: veterinary bacteria (Table 2)
# Strep dysgalaciae SPD1 = assay: MIC, veterinary bacteria; conditions: veterinary bacteria (Table 2)
# Strep agalactiae SPA1 = assay: MIC, veterinary bacteria; conditions: veterinary bacteria (Table 2)
# M. suipneumoniae NB12 = assay: MIC, anti-mycoplasmal, Friis broth solidified with 0.9% agarose; conditions: inoculum 10^3 to 10^5 C.F.U., 6 days incubation at 37°C
# M. suipneumoniae JF 435 = assay: as above; conditions: inoculum 10^3 to 10^5 C.F.U., 6 days incubation at 37°C
# M. suipneumoniae HK(2) = assay: as above; conditions: inoculum 10^3 to 10^5 C.F.U., 6 days incubation at 37°C
# M. suipneumoniae Str. 11 = assay: as above; conditions: inoculum 10^3 to 10^5 C.F.U., 6 days incubation at 37°C
# [14] = tested on: M. suipneumoniae J2206/183b; assay: as above; conditions: inoculum 10^3 to 10^5 C.F.U., 6 days incubation at 37°C
# M. suipneumoniae MS 16 = assay: as above; conditions: inoculum 10^3 to 10^5 C.F.U., 6 days incubation at 37°C
# [15] = tested on: M. suipneumoniae PW/C/210; assay: as above; conditions: inoculum 10^3 to 10^5 C.F.U., 6 days incubation at 37°C
# M. suipneumoniae LABER = assay: as above; conditions: inoculum 10^3 to 10^5 C.F.U., 6 days incubation at 37°C
# M. suipneumoniae UCD 1 = assay: as above; conditions: inoculum 10^3 to 10^5 C.F.U., 6 days incubation at 37°C
# M. suipneumoniae TAM 6N = assay: as above; conditions: inoculum 10^3 to 10^5 C.F.U., 6 days incubation at 37°C
# [16] = tested on: M. suipneumoniae ATCC 25095; assay: as above; conditions: inoculum 10^3 to 10^5 C.F.U., 6 days incubation at 37°C
# [17] = tested on: M. suipneumoniae NCTC 10110; assay: as above; conditions: inoculum 10^3 to 10^5 C.F.U., 6 days incubation at 37°C
# M. hyorhinis ATCC 23234 = assay: as above; conditions: inoculum 10^3 to 10^5 C.F.U., 6 days incubation at 37°C
# M. hyorhinis ATCC 25021 = assay: as above; conditions: inoculum 10^3 to 10^5 C.F.U., 6 days incubation at 37°C
# [18] = tested on: M. hyosynoviae ATCC 25591; assay: as above; conditions: inoculum 10^3 to 10^5 C.F.U., 6 days incubation at 37°C
# M. bovis NCTC 10131 = assay: microbe, parasite or virus in culture; conditions: M. bovis NCTC 10131; inoculum 10^3 to 10^5 C.F.U., 6 days incubation at 37°C
# [19] = tested on: M. bovigenitalium ATCC 14173; assay: MIC, anti-mycoplasmal, Friis broth solidified with 0.9% agarose; conditions: inoculum 10^3 to 10^5 C.F.U., 6 days incubation at 37°C
# M. dispar NCTC 10125 = assay: as above; conditions: inoculum 10^3 to 10^5 C.F.U., 6 days incubation at 37°C
# M. gallisepticum S6 = assay: as above; conditions: inoculum 10^3 to 10^5 C.F.U., 6 days incubation at 37°C
# M. pneumoniae ATCC 15492 = assay: as above; conditions: inoculum 10^3 to 10^5 C.F.U., 6 days incubation at 37°C
substance,measurement,setting,value
5-Acetylpentyl monate A [Example 7],MIC,E coli NCTC 10418 [1],>100 µm/ml
same,MIC,E coli ESS,0.5 µm/ml
same,MIC,P mirabilis 889,>100 µm/ml
same,MIC,K aerogenes A,>100 µm/ml
same,MIC,Ps aeruginosa 10662,>100 µm/ml
same,MIC,[2],0.5 µm/ml
same,MIC,[3],0.2 µm/ml
same,MIC,[4],0.1 µm/ml
same,MIC,[5],^a0.5 µm/ml
same,MIC,Bacillus subtilis 6633,0.5 µm/ml
same,MIC,Staph aureus Oxford [6],1.0 µm/ml
same,MIC,Staph aureus Russell,1.0 µm/ml
same,MIC,Staph aureus W2827,2.5 µm/ml
same,MIC,Strep faecalis I,>100 µm/ml
same,MIC,Strep pyogenes A 64/848,0.5 µm/ml
same,MIC,Strep pyogenes B 2788,2.5 µm/ml
same,MIC,Strep pyogenes C 2761,2.5 µm/ml
same,MIC,Strep pneumoniae CN33,0.5 µm/ml
same,MIC,E coli NCTC 10418 [7],80 µg/mL
same,MIC,E coli E1,>80 µg/mL
same,MIC,S dublin S7,>80 µg/mL
same,MIC,S typhimurium S18,>80 µg/mL
same,MIC,Bord bronchiseptica BO8,40 µg/mL
same,MIC,Bord bronchisptica BO9,5 µg/mL
same,MIC,Past multocida PA1,.625 µg/mL
same,MIC,Past multocida PA2,.312 µg/mL
same,MIC,Past Haemolytica PA5,5 µg/mL
same,MIC,[8],40 µg/mL
same,MIC,[9],>80 µg/mL
same,MIC,[10],.625 µg/mL
same,MIC,[11],.625 µg/mL
same,MIC,Staph aureus Oxford [12],.625 µg/mL
same,MIC,[13],5 µg/mL
same,MIC,Strep uberis SPU1,.156 µg/mL
same,MIC,Strep dysgalaciae SPD1,.312 µg/mL
same,MIC,Strep agalactiae SPA1,.625 µg/mL
same,in vitro MIC,M. suipneumoniae NB12,0.25 µg/mL
same,in vitro MIC,M. suipneumoniae JF 435,0.25 µg/mL
same,in vitro MIC,M. suipneumoniae HK(2),0.5 µg/mL
same,in vitro MIC,M. suipneumoniae Str. 11,0.25 µg/mL
same,in vitro MIC,[14],0.5 µg/mL
same,in vitro MIC,M. suipneumoniae MS 16,0.25 µg/mL
same,in vitro MIC,[15],0.25 µg/mL
same,in vitro MIC,M. suipneumoniae LABER,0.25 µg/mL
same,in vitro MIC,M. suipneumoniae UCD 1,0.5 µg/mL
same,in vitro MIC,M. suipneumoniae TAM 6N,0.5 µg/mL
same,in vitro MIC,[16],0.25 µg/mL
same,in vitro MIC,[17],0.5 µg/mL
same,in vitro MIC,M. hyorhinis ATCC 23234,0.1 µg/mL
same,in vitro MIC,M. hyorhinis ATCC 25021,0.1 µg/mL
same,in vitro MIC,[18],0.025 µg/mL
same,in vitro MIC,M. bovis NCTC 10131,<0.01 µg/mL
same,in vitro MIC,[19],0.025 µg/mL
same,in vitro MIC,M. dispar NCTC 10125,0.05 µg/mL
same,in vitro MIC,M. gallisepticum S6,2.5 µg/mL
same,in vitro MIC,M. pneumoniae ATCC 15492,0.5 µg/mL
